Measurements: PubChem BioAssay (NCI)
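Following 48 hours of exposure in 96-well plates, responses at five concentrations were used to interpolate endpoints linearly. Abbreviation: GI50, concentration required for 50% inhibition of growth. TGI denotes the concentration required for complete inhibition of growth.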

Legend:
Experiment in all cases: NCI tumour cell line growth inhibition, 48 h
CAKI-1 renal = test system: CAKI-1 renal
LOX IMVI melanoma = test system: LOX IMVI melanoma
MALME-3M melanoma = test system: MALME-3M melanoma
MCF7 breast = test system: MCF7 breast
NCI-H23 lung = test system: NCI-H23 lung
NCI-H522 lung = test system: NCI-H522 lung
OVCAR-3 ovarian = test system: OVCAR-3 ovarian
SF-268 CNS = test system: SF-268 CNS
SF-539 CNS = test system: SF-539 CNS
SK-MEL-28 melanoma = test system: SK-MEL-28 melanoma

| Structure (SMILES) | GI50 (CAKI-1 renal) [µM] | TGI (CAKI-1 renal) [µM] | GI50 (LOX IMVI melanoma) [nM] | TGI (LOX IMVI melanoma) [µM] | GI50 (MALME-3M melanoma) [nM] | TGI (MALME-3M melanoma) [µM] | GI50 (MCF7 breast) [nM] | TGI (MCF7 breast) [µM] | GI50 (NCI-H23 lung) [µM] | TGI (NCI-H23 lung) [µM] | GI50 (NCI-H522 lung) [nM] | TGI (NCI-H522 lung) [nM] | GI50 (OVCAR-3 ovarian) [µM] | TGI (OVCAR-3 ovarian) [µM] | GI50 (SF-268 CNS) [µM] | TGI (SF-268 CNS) [µM] | GI50 (SF-539 CNS) [nM] | TGI (SF-539 CNS) [µM] | GI50 (SK-MEL-28 melanoma) [µM] | TGI (SK-MEL-28 melanoma) [µM] |
| --- | --- | --- | --- | --- | --- | --- | --- | --- | --- | --- | --- | --- | --- | --- | --- | --- | --- | --- | --- | --- |
| CCOc1cc(/C=N\NC(=O)N/N=C/c2ccc(O)c(OCC)c2)ccc1O | 3.06 | > 100 | 2450 | > 100 | 973 | > 100 | 815 | > 100 | 4.22 | > 100 | 281 | 1490 | 0.308 | 1.08 | 5.69 | > 100 | 1420 | > 100 | 10.3 | > 100 |
| CC(C)N(C[C@H]1O[C@@H](n2cnc3c(N)ncnc32)[C@H](O)[C@@H]1O)C1CC(CCc2nc3ccc(C(C)(C)C)cc3[nH]2)C1 (stereo not given in full) | > 100 | > 100 | > 71500 | > 100 | 20000 | > 60.8 | 33200 | > 100 | > 100 | > 100 | > 75900 | > 100000 | > 100 | > 100 | > 100 | > 100 | > 100000 | > 100 | > 39.3 | > 54.1 |
| CS(=O)(=O)c1nc(Cl)c(Cl)c(C#N)c1Cl |  | 1.69 |  | 4.3 |  | 4.45 |  | 13.2 |  | 9 |  | 1280 |  | 4.73 |  | 21.9 |  | 11.3 |  | 4.75 |
| N#CC[C@H](C1CCCC1)n1cc(-c2ncnc3[nH]ccc23)cn1 | 7.91 | > 100 | 20900 | > 100 | 34100 | > 100 | 17600 | > 86.8 | 19.6 | 75.7 | 21000 | 57900 | 24.2 | > 67.3 | 16.8 | > 77.9 | 16700 | 62.7 | 31.8 | > 100 |
| COc1cnc2c(c1)C(=O)c1c-2n(CCCN2CCN(CCO)CC2)c(=O)c2cc([N+](=O)[O-])ccc12 | 1.34 | 15.8 | 1080 | 2.51 | 1560 | 3.33 | 142 | 1.59 | 1.27 | 3.33 | 499 | 2890 | 1.46 | 3.12 | 1.07 | 4.92 | 1700 | 3.68 | 2.01 | 4.16 |
| O=C(CC1(O)C(=O)Nc2c(Cl)ccc(Cl)c21)c1ccc(C2CC2)cc1 (stereo not given) | 0.449 | 17.3 | 392 | 14 | 1530 | 26.8 | 322 | 14.5 | 0.772 | 23.1 | 430 | 1900 | 3.46 | 16.6 | 2.98 | 23.4 | 751 | 5.79 | 2.51 | 21.9 |
| CN1CCN(c2ccc3nc4c(nc3c2C(F)(F)F)C(=O)c2ncccc2C4=O)CC1 | 1.2 | 2.75 | 1040 | 2.66 | 1060 | 2.24 | 316 | 2.09 | 0.365 | 1.91 | 1160 | 3550 | 0.379 | 1.41 | 1.66 | 4.13 | 1510 | 2.85 | 1.99 | 4.18 |
| COc1cc(/C=C/C(=O)c2ccc(Nc3nc(Nc4ccccc4)nc(Nc4ccc(Cl)cc4)n3)cc2)cc(OC)c1OC | 11 | > 32.5 | 7190 | > 32.5 | 9710 | > 32.5 | 2020 | > 32.5 | 11.9 | > 32.5 | 13900 | > 32500 | 8.62 | > 32.5 | 23.8 | > 32.5 | 6840 | 16.2 | 14.5 | > 32.5 |
| C[C@@H]1CN2[C@H]3[C@@H]1CC[C@]31CCC(=O)O[C@]1(C)[C@@H]1CC[C@H]3CCC=C3[C@@H]12 | > 70 | > 70 | > 70000 | > 70 | > 70000 | > 70 | > 70000 | > 70 | > 70 | > 70 | > 70000 | > 70000 | > 70 | > 70 | > 70 | > 70 | > 70000 | > 70 | > 70 | > 70 |
